Test results taken from paper PMC10189894 (Chemical Science, 2023).

Assay: Autohydrolytic cascade reaction
Assay type: physicochemical
Details: EDTA at 10–200 μM; Fig. S9E

**Q.** With `O=C(O)CN(CCN(CC(=O)O)CC(=O)O)CC(=O)O` [EDTA] as the compound, how does the “effect on the ACR” value read?
**A.** inhibitory effect
